# Measured values reported in PubChem BioAssay (NCI).
# “And” between values parts separate entries of the source, which are not always exact repeats. Equal entries are not always repeated.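 All cell lines were grown in 96-well plates and treated with compound for 48 hours. Here, GI50 denotes the concentration required for 50% inhibition of growth. TGI: total growth inhibition.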
# Tests used:
# Experiment in all cases: NCI tumour cell line growth inhibition, 48 h
# SNB-78 CNS = test system: SNB-78 CNS
# M19-MEL melanoma = test system: M19-MEL melanoma
# LXFL 529 NSCLC = test system: LXFL 529 NSCLC
# DMS 114 small cell lung = test system: DMS 114 small cell lung
# KM20L2 colon = test system: KM20L2 colon
# RXF-631 renal = test system: RXF-631 renal
# HOP-18 NSCLC = test system: HOP-18 NSCLC
# DLD-1 colon = test system: DLD-1 colon
# XF 498 CNS = test system: XF 498 CNS
# P388 leukemia = test system: P388 leukemia
# SN12K1 renal = test system: SN12K1 renal
# P388/ADR leukemia = test system: P388/ADR leukemia
SMILES,TGI (SNB-78 CNS),TGI (M19-MEL melanoma),TGI (LXFL 529 NSCLC),TGI (DMS 114 small cell lung),TGI (KM20L2 colon),TGI (RXF-631 renal),TGI (HOP-18 NSCLC) [µM],TGI (DLD-1 colon),TGI (XF 498 CNS) [µM],GI50 (RXF-631 renal) [µM],GI50 (SNB-78 CNS) [µM],GI50 (M19-MEL melanoma) [µM],TGI (P388 leukemia) [µM],GI50 (DLD-1 colon) [µM],GI50 (LXFL 529 NSCLC) [µM],GI50 (DMS 114 small cell lung) [µM],TGI (SN12K1 renal) [µM],TGI (P388/ADR leukemia) [µM]
COC1CCC(OS(C)(=O)=O)CO1 (stereo not drawn),> 100 µM,> 100 µM,> 100 µM,> 100 µM,> 100 µM,,,,,,,,,,,,,
CCN(CC)/C(=C\Cl)Nc1ccccn1,> 100 µM,> 100 µM,> 100 µM,> 100 µM,> 100 µM,> 100 µM,> 100,> 100 µM,> 100,,,,,,,,,
O=C1CCC(NC(=O)Cc2ccc(O)cc2)C(=O)N1 (stereo not drawn),> 2500 µM,> 2500 µM,> 2500 µM,> 2500 µM,> 2500 µM,> 2500 µM,> 2500,,> 2500,,,,,,,,,
Cc1c(N)nc([C@H](CC(N)=O)NC[C@H](N)C(N)=O)nc1C(=O)N[C@H](C(=O)N[C@H](C)[C@@H](O)[C@H](C)C(=O)N[C@H](C(=O)NCCc1nc(-c2nc(C(=O)NCCC[S+](C)C)cs2)cs1)[C@@H](C)O)C(OC1OC(CO)C(O)C(O)C1OC1OC(CO)C(O)C(OC(N)=O)C1O)c1cnc[nH]1 (stereo partly drawn),24.9 µM and > 29 µM,25 µM and 29 µM,23.6 µM and > 29 µM,5.68 µM and 29 µM,24.3 µM and 29 µM,17.7 µM and 10.4 µM,13.3,23.7 µM and > 29 µM,13.5,0.372,> 29,12.9,18.5,> 29,> 29,1.29,21,20
CN(C)CCNc1c([N+](=O)[O-])cc2c3c(cccc13)C(=O)N(CCN(C)C)C2=O,7.21 µM,3.28 µM,,3.1 µM,5.87 µM,,4.6,6.02 µM,3.92,,,,2.62,,,,,4.9
CN1CCC23c4ccccc4NC1C21CCN(C)C3Nc2ccccc21,> 158 µM,> 375 µM,,> 375 µM,> 350 µM,,> 375,> 375 µM,,,,,> 124,,,,> 275,> 375
Cc1c2c(cc3c1[nH]c1ccccc13)C(c1ccc(F)cc1)=NCC2,9.03 µM,5.44 µM,,2.41 µM,5.52 µM,,14.5,6.45 µM,5.67,,,,1.97,,,,2.16,5
